The values below are quoted from earlier work in patent US11213539B2, “Use of ivermectin and brimonidine in the treatment and/or prevention of moderate to severe rosacea” (GALDERMA HOLDING SA, priority 2015, dated 2022).

This data set concerns patients treated with brimonidine 0.33% gel. Conditions: brimonidine used alone; in a number of patients, in particular worsening of erythema (rebound).

On to `Brc1c(NC2=NCCN2)ccc2nccnc12` [brimonidine], for which the related adverse effects entry was “excessive”.
